According to US10947188B2, “Small molecule ferroptosis inducers” (THE TRUSTEES OF COLUMBIA UNIVERSITY IN THE CITY OF NEW YORK, priority 2016, dated 2021):

Tested on: HT-1080
Assay: Modulatory profiling: Alamar Blue viability, lethal compound cotreated with death modulator (EC50, AUC); as to AUC HT.BHA: reference of the scale not given here; as to AUC HT.EGTA: reference of the scale not given here
Type: cell-based
Design: AUC, modulator HT.3MA / AUC, modulator HT.ALLN / AUC HT.ATA / AUC HT.ActD / AUC HT.BHA / AUC HT.BHT / AUC HT.BocD / AUC HT.CHX / AUC HT.Co2+ / AUC HT.DPQ / AUC HT.EGTA / AUC HT.Lmim / AUC HT.NAD+ / AUC HT.Nec-1 / AUC HT.SP600125 / AUC HT.TLCK / AUC HT.U0126: unit not given beside the values
Details: for AUC HT.ATA: HT-1080, modulator ATA; for AUC HT.ActD: HT-1080, modulator ActD; for AUC HT.BHA: HT-1080, modulator BHA; for AUC HT.BHT: HT-1080, modulator BHT; for AUC HT.BocD: HT-1080, modulator BocD; for AUC HT.CHX: HT-1080, modulator CHX; for AUC HT.Co2+: HT-1080, modulator Co2+; for AUC HT.CspA: HT-1080, modulator CspA; for AUC HT.DPQ: HT-1080, modulator DPQ; for AUC HT.EGTA: HT-1080, modulator EGTA; for AUC HT.Gd3+: HT-1080, modulator Gd3+; for AUC HT.LNAME: HT-1080, modulator LNAME; for AUC HT.Lmim: HT-1080, modulator Lmim; for AUC HT.NAD+: HT-1080, modulator NAD+; for AUC HT.NMMA: HT-1080, modulator NMMA; for HT.atoc (AUC) / HT.bCarotene (AUC) / HT.deferox (AUC) / HT.digoxin (AUC) / HT.trolox (AUC) / HT.zVAD (AUC) / EC50: HT-1080; for HT.atoc (AUC): modulator atoc; for HT.bCarotene (AUC): modulator bCarotene; for HT.deferox (AUC): modulator deferox; for HT.digoxin (AUC): modulator digoxin; for HT.trolox (AUC): modulator trolox; for HT.zVAD (AUC): modulator zVAD; for AUC, modulator HT.3MA / AUC, modulator HT.ALLN: HT-1080 cells, modulatory profile value (AUC); for AUC, modulator HT.3MA: lethal compound cotreated with modulator 3MA; for AUC, modulator HT.ALLN: lethal compound cotreated with modulator ALLN; for EC50: Homo sapiens, HT-1080, 48 h, 48 h

Compound	AUC HT.ATA	AUC HT.ActD	AUC HT.BHA	AUC HT.BHT	AUC HT.BocD	AUC HT.CHX	AUC HT.Co2+	AUC HT.CspA	AUC HT.DPQ	AUC HT.EGTA	AUC HT.Gd3+	AUC HT.LNAME	AUC HT.Lmim	AUC HT.NAD+	AUC HT.NMMA	HT.atoc (AUC)	HT.bCarotene (AUC)	HT.deferox (AUC)	HT.digoxin (AUC)	HT.trolox (AUC)	other results
N/C(=N\OC(=O)C12CC3CC(CC(C3)C1)C2)c1ccccc1 [CIL41]	0.02643	−0.09343	0.1312	0.009338	−0.01678	−0.05459	0.06389	9.4409E−05	0.04282	0.02946	−0.02592	−0.0121	0.1377	−0.008657	−0.01029	0.316	−0.02182	0.1795	−0.09255	0.161	HT.zVAD (AUC): −0.0167; effect of ferroptosis inhibitors (iron chelators and lipophilic antioxidants) on lethality in modulatory profiling (HT-1080 and BJeLR): suppression by canonical ferroptosis inhibitors; AUC, modulator HT.3MA: 0.04521; AUC, modulator HT.ALLN: 0.09324; EC50 (DMSO): 5.67 µM; EC50 (cotreated with MEK inh U0126): 20.9 µM; EC50 (cotreated with antioxidant Atoc): 50 µM; EC50 (cotreated with antioxidant BHA): 26 µM; EC50 (cotreated with antioxidant BHT): 12.6 µM; EC50 (cotreated with antioxidant Trolox): 23.4 µM; EC50 (cotreated with iron-chelator Deferoxamine): 124 µM; EC50 (cotreated with iron-chelator Lmim): 69.8 µM
O=P(Oc1ccccc1)(Oc1ccccc1)O[C@@H]1C=CS(=O)(=O)C1 [CIL44]	0.0592	0.01649	−0.02559	−0.1007	−0.0552	0.02874	−0.04658	−0.01586	−0.01669	−0.007267	−0.01147	−0.02505	−0.007614	−0.07144	−0.0419	0.04386	−0.02012	0.1041	0.01992	−0.02106	HT.zVAD (AUC): 0.01751; AUC, modulator HT.3MA: 0.07356; AUC, modulator HT.ALLN: 0.1392
CCc1ccc(/C=C2/SC(=O)N(CCC(C)NCCCN3CCOCC3)C2=O)cc1 (stereo not drawn) [CIL46]	0.0162	−0.02916	−0.1015	−0.1471	−0.04371	−0.01909	−0.1082	0.0003356	−0.001692	−0.01699	−0.008617	−0.02805	−0.03166	−0.06754	0.001557	0.04736	−0.01026	0.03467	−0.04671	−0.0145	HT.zVAD (AUC): 0.01724; AUC, modulator HT.3MA: 0.08624; AUC, modulator HT.ALLN: 0.03767
